Measurements taken from patent publication US10364256B2 (GlaxoSmithKline Intellectual Property Development Limited, priority 2015, dated 2019).
Where two headings read alike, the source gives them in different places.

What was measured:
[1] = tested on: NQO1 specific enzyme activity in BEAS-2B cells (marker for NRF2 activation); assay: BEAS-2B NQO1 MTT Assay; assay type: cell-based; conditions: compound incubated 48 hours, read-out: EC50 (NQO1 specific enzyme activity induction)
Text: BEAS-2B NQO1 MTT Assay NAD(P)H:quinone oxidoreductase 1 (NQO1), also called DT diaphorase, is a homodimeric FAD-containing enzyme that catalyzes obligatory NAD(P)H-dependent two-electron reductions of quinones and protects cells against the toxic and neoplastic effects of free radicals and reactive oxygen species arising from one-electron reductions. The transcription of NQO1 is finely regulated by NRF2, and thus NQO1 activity is a good marker for NRF2 activation. On day one, frozen BEAS-2B cells (ATCC) are thawed in a water bath, counted, and re-suspended at a concentration of 250,000 cells/mL. Fifty microliters of cells are plated in 384 well black clear-bottomed plates. Plates are incubated at 37° C., 5% CO2 overnight. On day two, plates are centrifuged and 50 nL of compound or controls are added to the cells. Plates are then incubated at 37° C., 5% CO2 for 48 hours. On day four, medium is aspirated from the plate and crude cell lysates are made by adding 13 uL of 1× Cell Signaling Technologies lysis buffer with 1 Complete, Mini, EDTA-free Protease Inhibitor Tablet (Roche) for each 10 mL of lysis buffer. After lysis plates are incubated for 20 minutes at room temperature. Two microliters of lysate are removed for use in Cell Titer Glo assay (Promega) and MTT cocktail is prepared (Prochaska et. al. 1998) for measurement of NQO1 activity. Fifty microliters of MTT cocktail is added to each well, plate is centrifuged, and analyzed on an Envision plate reader (Perkin Elmer) using Absorbance 570 nm label for 30 minutes. Product formation is measured kinetically and the pEC50 of NQO1 specific activity induction is calculated by plotting the change in absorbance (Delta OD/min) versus the log of compound concentration followed by 3-parameter fitting. pEC50 is the negative log of the EC50.

[2] = molecular target: T1, Keap1 Kelch domain (321-609) / TAMRA-labeled 16mer NRF2 peptide (ETGE motif) (Homo sapiens, UniProt Q14145); assay: NRF2-Keap1 FP Assay (Keap1 Kelch fluorescence polarization); assay type: binding; conditions: 20 nM Keap1 (321-609), 8 nM Tamra labeled peptide
T1 construct: the Kelch domain (321-609) of Keap1 is used
T1 sequence (Q14145 321-609): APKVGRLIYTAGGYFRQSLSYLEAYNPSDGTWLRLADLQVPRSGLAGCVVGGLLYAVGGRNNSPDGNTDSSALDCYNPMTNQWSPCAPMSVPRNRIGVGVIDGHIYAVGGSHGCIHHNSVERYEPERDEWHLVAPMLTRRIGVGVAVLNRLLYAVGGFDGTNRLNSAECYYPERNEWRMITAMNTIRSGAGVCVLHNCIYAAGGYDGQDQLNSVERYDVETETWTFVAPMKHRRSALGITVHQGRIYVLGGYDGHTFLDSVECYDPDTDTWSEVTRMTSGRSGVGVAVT
Text: One model for the NRF2-Keap1 interaction is through two binding sites in the Neh2 domain on NRF2. The two sites are referred to as the DLG binding motif (latch domain, uM affinity) and the ETGE binding motif (hinge domain, nM affinity). The Keap1 protein consists of an N-terminal region (NTR), a broad complex, tramtrack, and brick a′ brac domain (BTB), an intervening region (IVR), a double glycine repeat domain (DGR or Kelch), and a C-terminal region. The DLG and ETGE motifs of NRF2's Neh2 domain bind to the Kelch domain of Keap1 at different affinities. In the Keap1 Kelch fluorescence polarization (FP) assay, a TAMRA-labeled 16mer peptide (AFFAQLQLDEETGEFL) containing the ETGE motif of NRF2 and the Kelch domain (321-609) of Keap1 is used. The assay determines if a compound interferes with the binding between Keap1 […] and the TAMRA-labeled peptide. Binding of TAMRA-labeled NRF2 peptide to Keap1 (321-609) results in a high FP signal. If a compound interferes with the binding between the peptide and the protein, it will cause the assay signal to decrease. Thus, assay signal is inversely proportional to binding inhibition.
100 nl of 100× compound dose response curves (serial 3-fold dilutions) in DMSO are stamped using an Echo liquid handling system (Labcyte) into 384-well low volume black assay plates (Greiner, #784076), with DMSO in columns 6 and 18. The top concentration of compound is located in columns 1 and 13. Keap1 (321-609) is diluted to 40 nM (2×) in 1× assay buffer (50 mM Tris, pH 8.0, 100 mM NaCl, 5 mM MgCl2, 1 mM DTT, 2 mM CHAPS, and 0.005% BSA) and 5 ul is added using a Multidrop Combi (Thermo Electron Corporation) equipped with a metal tip dispenser to all wells of the compound plate, except column 18. Column 18 receives only 5 ul of assay buffer. Immediately, 5 uL of 16 nM (2×) of Tamra labeled peptide (AFFAQLQLDEETGEFL, 21st Century Biochemicals) is added to all wells of the plate. The plates are spun at 500 rpm for 1 min, incubated for 1 hr at room temperature, and read on an Analyst GT (Molecular Devices) equipped with excitation (530/25 nm) and emission (580/10 nm) filters designed for Tamra probes. A 561 nm dichroic mirror is also used in the Analyst. The final assay concentrations of Keap1 (321-609) and Tamra labeled peptide are 20 nM and 8 nM, respectively. Fluorescence measurements, represented as mP, are used in the transformation of the data. Compound activity is calculated based on percent inhibition, normalized against controls in the assay (Control 1 contains the Tamra peptide and Keap1 (321-609) together (0% response) and control 2 contains the Tamra peptide alone (100% response)). Data analysis is handled using the software package Abase XE (Surrey, United Kingdom. The % inhibition values are calculated by the equation: 100−(100*((compound response−average control 2)/(average control 1−average control2))). For calculation of pIC50s, Abase XE uses a four parameter equation. pIC50 is the negative log of the IC50.

[3] = molecular target: T2, full length Keap1 protein / full length NRF2 protein (Homo sapiens, UniProt Q14145); assay: NRF2-Keap1 TR-FRET Low Protein Assay; assay type: binding; conditions: 1.25 nM Keap1 FlagHis and 2.5 nM biotin-NRF2 added
T2 construct: full length NRF2 protein and full length Keap1 protein (Keap1 exists a dimer) are used; His
T2 sequence (Q14145 whole entry): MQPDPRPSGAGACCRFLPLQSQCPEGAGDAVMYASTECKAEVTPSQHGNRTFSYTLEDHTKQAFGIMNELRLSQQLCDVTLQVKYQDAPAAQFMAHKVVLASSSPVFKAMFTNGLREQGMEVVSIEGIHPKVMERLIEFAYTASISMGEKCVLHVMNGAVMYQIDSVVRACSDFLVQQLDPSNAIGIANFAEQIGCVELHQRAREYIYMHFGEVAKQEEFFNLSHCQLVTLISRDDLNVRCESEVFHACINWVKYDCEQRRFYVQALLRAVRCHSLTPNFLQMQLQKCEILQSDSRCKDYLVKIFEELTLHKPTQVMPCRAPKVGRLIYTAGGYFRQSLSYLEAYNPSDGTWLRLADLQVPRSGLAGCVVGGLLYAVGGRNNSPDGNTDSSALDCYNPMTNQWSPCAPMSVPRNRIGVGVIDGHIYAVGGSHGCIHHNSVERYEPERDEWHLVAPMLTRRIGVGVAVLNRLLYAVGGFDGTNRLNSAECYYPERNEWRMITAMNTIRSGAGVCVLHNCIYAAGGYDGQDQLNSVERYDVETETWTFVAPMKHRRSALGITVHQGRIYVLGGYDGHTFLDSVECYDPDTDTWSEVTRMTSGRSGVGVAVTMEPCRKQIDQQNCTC
Text: NRF2-Keap1 TR-FRET Low Protein Assay In the NRF2-Keap1 TR-FRET (time-resolved fluorescence resonance energy transfer) low protein assay, full length NRF2 protein and full length Keap1 protein (Keap1 exists a dimer) are used. The assay detects a compound's ability to displace the binding of Keap1 […] with biotinylated Avi-NRF2 protein. Biotin-NRF2 binds to streptavidin-europium (a component of the detection mix) and Keap1 […] is recognized by anti-Flag APC (allophycocyanin) antibody (also a component of the detection mix). If binding occurs between the two proteins, there will be an energy transfer from the Eu+3 (donor) at 615 nm to the APC (acceptor) at 665 nm. A potential NRF2 inhibitor will cause a reduction in the TR-FRET signal by interfering with the binding of Keap1 to NRF2. Ten nanoliters of 100× compound dose response curves (serial 3-fold dilutions) in DMSO are stamped using an Echo liquid handling system (Labcyte) into 384-well, low volume, black assay plates (Greiner, #784076), with DMSO in columns 6 and 18. An additional 90 nl DMSO is added to each well, to bring the total volume to 100 nl per well. The top concentration of compound is located in columns 1 and 13, with the serial dilutions going across the row. All reagents are diluted in assay buffer (50 mM Tris, pH 8.0, 5 mM MgCl2, 100 mM NaCl, 0.005% BSA, 1 mM DTT, and 2 mM CHAPS. The BSA, DTT, and CHAPS are added to the assay buffer on the day of assay. […] Wells in column 18 receive 5 ul of assay buffer instead. Plates are centrifuged at 500 rpm for 1 minute, covered with a plate lid, and incubated at 37° C. for 2.25 hours. Plates are then removed from the incubator and allowed to cool to RT for 15 minutes. Five microliters of 2.5 nM biotin-NRF2 protein is then added to all wells of the plates and the plates are spun at 500 rpm for 1 minute, followed by incubating at 4° C. for 1.25 hours. The plates are then allowed to warm to RT for 15 minutes, followed by the addition of 10 ul of detection mix (1 nM Streptavidin Eu+W1024 and 5 ug/ml mouse anti-DYKDDDDK IgG conjugated to SureLight APC antibody; both from Columbia Biosciences) to all wells. Plates are spun at 500 rpm for 1 minute, incubated for 1 hour at RT, and read on an Envision plate reader using a 320 nm excitation filter and 615 nm and 665 nm emission filters. […] Data analysis is handled using the software package Abase XE (Surrey, United Kingdom). […] For calculation of pIC50s, Abase XE uses a four parameter equation. pIC50 is the negative log of the IC50.

## 1-(3′-((1-Ethyl-2,3-dihydro-1H-benzo[e][1,4]diazepin-4(5H)-yl)methyl)-[1,1′-biphenyl]-3-yl)-5-((1,2-trans)-2-(1-methyl-1H-1,2,3-triazol-4-yl)cyclopropyl)-1H-pyrazole-4-carboxylic Acid [Example 127]
[1]
  EC50: 100 to 1000 nM
[2]
  IC50: 10 to 100 nM
[3]
  IC50: 10 to 100 nM

## C[C@H](Oc1cccc(-c2cccc(-n3ncc(C(=O)O)c3[C@@H]3C[C@H]3c3cn(C)nn3)c2)c1)C1CCCCC1 (racemic) [Example 75, 1-(3′-((S)-1-Cyclohexylethoxy)-[1,1′-biphenyl]-3-yl)-5-(trans-2-(1-methyl-1H-1,2,3-triazol-4-yl)cyclopropyl)-1H-pyrazole-4-carboxylic Acid]
[1]; Homo sapiens, BEAS-2B, 48 h
  EC50: 1 to 10 nM

## C[C@H](Oc1cccc(-c2cccc(-n3ncc(C(=O)O)c3[C@@H]3C[C@H]3c3cn(C4CC4)nn3)c2)c1)C1CCCCC1 (racemic) [Example 79, 1-(3′-((S)-1-Cyclohexylethoxy)-[1,1′-biphenyl]-3-yl)-5-(trans-2-(1-cyclopropyl-1H-1,2,3-triazol-4-yl)cyclopropyl)-1H-pyrazole-4-carboxylic acid]
[1]; Homo sapiens
  EC50: 1 to 10 nM

## C[C@H](Oc1cccc(-c2cccc(-n3ncc(C(=O)O)c3[C@@H]3C[C@H]3c3cn(C4CCOCC4)nn3)c2)c1)C1CCCCC1 (racemic) [Example 83, 1-(3′-((S)-1-Cyclohexylethoxy)-[1,1′-biphenyl]-3-yl)-5-(trans-2-(1-(tetrahydro-2H-pyran-4-yl)-1H-1,2,3-triazol-4-yl)cyclopropyl)-1H-pyrazole-4-carboxylic acid]
[1]; Homo sapiens
  EC50: 1 to 10 nM

## C[C@H](Oc1cccc(-c2cccc(-n3ncc(C(=O)O)c3[C@@H]3C[C@H]3c3cn(CC(F)(F)F)nn3)c2)c1)C1CCCCC1 (racemic) [Example 89, 1-(3′-((S)-1-Cyclohexylethoxy)-[1,1′-biphenyl]-3-yl)-5-(trans-2-(1-(2,2,2-trifluoroethyl)-1H-1,2,3-triazol-4-yl)cyclopropyl)-1H-pyrazole-4-carboxylic acid]
[1]; Homo sapiens
  EC50: 1 to 10 nM

## C[C@H](Oc1cccc(-c2cccc(-n3ncc(C(=O)O)c3[C@@H]3C[C@H]3c3c[nH]nn3)c2)c1)C1CCCCC1 (racemic) [Example 93, 5-(trans-2-(1H-1,2,3-Triazol-4-yl)cyclopropyl)-1-(3′-((S)-1-cyclohexylethoxy)-[1,1′-biphenyl]-3-yl)-1H-pyrazole-4-carboxylic Acid]
[1]; Homo sapiens
  EC50: 1 to 10 nM

## C[C@H]1Cc2ccccc2S(=O)(=O)N(Cc2cccc(-c3cccc(-n4ncc(C(=O)O)c4[C@@H]4C[C@H]4c4cn(C)nn4)c3)c2)C1 (racemic) [Example 136, 1-(3′-(((S)-4-methyl-1,1-dioxido-4,5-dihydrobenzo[f][1,2]thiazepin-2(3H)-yl)methyl)-[1,1′-biphenyl]-3-yl)-5-((1,2-trans)-2-(1-methyl-1H-1,2,3-triazol-4-yl)cyclopropyl)-1H-pyrazole-4-carboxylic acid]
[1]; Homo sapiens
  EC50: 100 to 1000 nM

## C[C@@H]1Cc2ccccc2S(=O)(=O)N(Cc2cccc(-c3cccc(-n4ncc(C(=O)O)c4[C@@H]4C[C@H]4c4cn(C)nn4)c3)c2)C1 (racemic) [Example 137, 1-(3′-(((R)-4-methyl-1,1-dioxido-4,5-dihydrobenzo[f][1,2]thiazepin-2(3H)-yl)methyl)-[1,1′-biphenyl]-3-yl)-5-((1,2-trans)-2-(1-methyl-1H-1,2,3-triazol-4-yl)cyclopropyl)-1H-pyrazole-4-carboxylic acid]
[1]; Homo sapiens
  EC50: 10 to 100 nM

## CCC[C@@H]1CCCCN1C(=O)c1cccc(-c2cccc(-n3ncc(C(=O)O)c3[C@@H]3C[C@H]3c3cn(C)nn3)c2)c1 (racemic) [Example 199, 5-((1,2-trans)-2-(1-methyl-1H-1,2,3-triazol-4-yl)cyclopropyl)-1-(3′-((R)-2-propylpiperidine-1-carbonyl)-[1,1′-biphenyl]-3-yl)-1H-pyrazole-4-carboxylic acid]
[1]; Homo sapiens, BEAS-2B, 48 h
  EC50: 10 to 100 nM

## CC(Cc1cccc(-c2cccc(-n3ncc(C(=O)O)c3[C@@H]3C[C@H]3c3cn(C)nn3)c2)c1)C1CCCCC1 (single isomer, unassigned) [Example 116f, 1-(3′-((R) or (S)-2-Cyclohexylpropyl)-[1,1′-biphenyl]-3-yl)-5-((1R,2R)-2-(1-methyl-1H-1,2,3-triazol-4-yl)cyclopropyl)-1H-pyrazole-4-carboxylic Acid]
[1]
  EC50: 1 to 10 nM
[2]
  IC50: 10 to 100 nM
